IC50 data for 30 compounds are collected here from patent publication US10189841B2, “Purinones as ubiquitin-specific protease 1 inhibitors” (Forma Therapeutics, Inc., priority 2015, dated 2019).

In this assay the target is USP1 (construct USP1 (I-785, GG670, 671AA)/UAF1 (I-677)-Flag) (Homo sapiens (Human), UniProt O94782, G670A/G671A). Nature of the assay: Ubiquitin-Rhodamine 110 assay for USP1 activity. The assay is classed as biochemical. Conditions: USP1/UAF1 25 pM, Ub-Rh110 25 nM, 30 min preincubation. An outline of the steps: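 Two formats with the USP1/UAF1 complex and 25 nM ubiquitin-rhodamine 110 in pH 8.0 Tris buffer with calcium, glutathione and detergent. Single-point screening used 10 µM, 100 pM enzyme and 45 min. Inhibition was set against no-enzyme and DMSO wells.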

A value given as a limit tells only on which side of the number the result lay.

Sequence of USP1 (construct USP1 (I-785, GG670, 671AA)/UAF1 (I-677)-Flag) (O94782 whole entry G670A/G671A): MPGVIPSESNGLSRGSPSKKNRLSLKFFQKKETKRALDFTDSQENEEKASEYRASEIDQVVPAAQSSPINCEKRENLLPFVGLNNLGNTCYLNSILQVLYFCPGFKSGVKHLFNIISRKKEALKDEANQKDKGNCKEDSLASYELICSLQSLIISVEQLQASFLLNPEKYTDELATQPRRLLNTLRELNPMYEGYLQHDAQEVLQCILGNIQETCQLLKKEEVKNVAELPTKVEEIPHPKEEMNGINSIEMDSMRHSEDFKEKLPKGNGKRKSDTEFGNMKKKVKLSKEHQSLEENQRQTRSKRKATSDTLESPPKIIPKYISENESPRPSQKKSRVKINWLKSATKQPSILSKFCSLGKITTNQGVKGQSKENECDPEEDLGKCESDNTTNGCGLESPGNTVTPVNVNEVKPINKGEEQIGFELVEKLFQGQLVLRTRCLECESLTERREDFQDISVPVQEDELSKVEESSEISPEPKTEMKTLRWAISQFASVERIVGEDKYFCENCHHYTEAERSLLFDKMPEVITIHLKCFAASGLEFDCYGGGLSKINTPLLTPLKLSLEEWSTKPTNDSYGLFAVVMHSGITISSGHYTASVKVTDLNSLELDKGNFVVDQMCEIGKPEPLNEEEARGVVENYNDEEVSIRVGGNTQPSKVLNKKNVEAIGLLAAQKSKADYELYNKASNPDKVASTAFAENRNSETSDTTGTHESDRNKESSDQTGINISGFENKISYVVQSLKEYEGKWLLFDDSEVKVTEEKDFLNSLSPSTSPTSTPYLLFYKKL
Sequence of USP1 (construct USP1 (I-785, GG670, 671AA)/UAF1 (I-677)-Flag) (Q8TAF3 whole entry partner): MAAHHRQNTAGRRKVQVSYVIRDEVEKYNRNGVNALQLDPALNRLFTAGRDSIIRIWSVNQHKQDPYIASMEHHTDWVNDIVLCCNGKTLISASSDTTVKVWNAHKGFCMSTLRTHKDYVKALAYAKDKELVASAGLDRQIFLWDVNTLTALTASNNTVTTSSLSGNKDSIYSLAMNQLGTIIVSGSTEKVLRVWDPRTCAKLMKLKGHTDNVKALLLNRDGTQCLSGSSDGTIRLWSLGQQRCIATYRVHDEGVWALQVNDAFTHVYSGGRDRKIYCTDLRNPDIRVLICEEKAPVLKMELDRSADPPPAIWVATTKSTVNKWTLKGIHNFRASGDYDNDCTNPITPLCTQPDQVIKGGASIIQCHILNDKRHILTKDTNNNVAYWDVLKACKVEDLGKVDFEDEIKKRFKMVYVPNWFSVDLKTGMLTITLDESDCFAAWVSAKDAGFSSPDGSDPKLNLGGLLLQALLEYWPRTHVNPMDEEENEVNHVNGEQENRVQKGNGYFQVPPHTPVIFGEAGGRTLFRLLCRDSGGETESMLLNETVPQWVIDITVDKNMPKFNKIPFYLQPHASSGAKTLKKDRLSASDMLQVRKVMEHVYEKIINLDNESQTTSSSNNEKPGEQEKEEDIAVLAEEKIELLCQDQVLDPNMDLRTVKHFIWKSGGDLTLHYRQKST

As usually defined, the IC50 is the concentration needed to halve the response being measured. Lower therefore signals inhibition by little substance. For the compound `CC(C)c1ccccc1-c1ncc2[nH]c(=O)n(Cc3ccc(-n4ccc([C@H]5CCCNC5)n4)cc3)c2n1` (single isomer, unassigned) [Compound I-225], the IC50 fell in the range of 0.05 to 0.2 µM. For `CC(C)c1ccccc1-c1ncc2c(n1)n(Cc1ccc(-c3cccc4nccn34)cc1)c(=O)n2C` [Compound I-270, 9-(4-(imidazo[1,2-a]pyridin-5-yl)benzyl)-2-(2-isopropylphenyl)-7-methyl-7,9-dihydro-8H-purin-8-one] the value was 0.2 to 2 µM; for `Cn1cc(C(F)(F)F)nc1-c1ccc(Cn2c(=O)[nH]c3cnc(-c4cccnc4OCC4CCOC4)nc32)cc1` (stereo not drawn) [Compound I-425, 9-(4-(1-methyl-4-(trifluoromethyl)-1H-imidazol-2-yl)benzyl)-2-(2-((tetrahydrofuran-3-yl)methoxy)pyridin-3-yl)-7,9-dihydro-8H-purin-8-one], less than 0.05 µM.

Consider `CC(O)c1ccccc1-c1ncc2[nH]c(=O)n(Cc3ccc(-c4nc(C(F)(F)F)cn4C)cc3)c2n1` (stereo not drawn) [Compound I-544, 2-(2-(1-Hydroxyethyl)phenyl)-9-(4-(1-methyl-4-(trifluoromethyl)-1H-imidazol-2-yl)benzyl)-7,9-dihydro-8H-purin-8-one], for which the IC50 lay in the range of 0.05 to 0.2 µM. For `CC(C)c1ncccc1-c1ncc2c(n1)n(Cc1ccc(-c3nc(C(F)(F)F)cn3C)cc1)c(=O)n2C1CS(=O)(=O)C1` [Compound I-121, 7-(1,1-dioxidothietan-3-yl)-2-(2-isopropylpyridin-3-yl)-9-(4-(1-methyl-4-(trifluoromethyl)-1H-imidazol-2-yl)benzyl)-7,9-dihydro-8H-purin-8-one] the value was 0.2 to 2 µM; for `CC(C)c1ccccc1-c1ncc2[nH]c(=O)n(Cc3ccc(C(=O)N4CCC(F)(F)C4)cc3)c2n1` [Compound I-392, 9-(4-(3,3-difluoropyrrolidine-1-carbonyl)benzyl)-2-(2-isopropylphenyl)-7,9-dihydro-8H-purin-8-one], less than 0.05 µM. Take `CO[C@@H](C)c1ccccc1-c1ncc2[nH]c(=O)n(Cc3ccc(-c4nc(C(F)(F)F)cn4C)cc3)c2n1` [Compound I-56, (S)-2-(2-(1-methoxyethyl)phenyl)-9-(4-(1-methyl-4-(trifluoromethyl)-1H-imidazol-2-yl)benzyl)-7,9-dihydro-8H-purin-8-one]: the half-inhibitory concentration (IC50) was less than 0.05 µM. The figure for `CC(C)c1ccccc1-c1ncc2[nH]c(=O)n([C@H](C)c3ccc(-n4ccnn4)cc3)c2n1` [Compound I-148, (R)-9-(1-(4-(1H-1,2,3-triazol-1-yl)phenyl)ethyl)-2-(2-isopropylphenyl)-7,9-dihydro-8H-purin-8-one] is 0.2 to 2 µM. In turn, `CC(C)c1ccccc1-c1ncc2[nH]c(=O)n(Cc3ccc(-c4nnn[nH]4)cc3)c2n1` [Compound I-513, 9-(4-(1H-tetrazol-5-yl)benzyl)-2-(2-isopropylphenyl)-7,9-dihydro-8H-purin-8-one] showed a half-inhibitory concentration (IC50) of more than 2 µM. Take `Cn1cc(C(F)(F)F)nc1-c1ccc(Cn2c(=O)[nH]c3cnc(-c4cccnc4OCC4CCCO4)nc32)cc1` (stereo not drawn) [Compound I-424, 9-(4-(1-methyl-4-(trifluoromethyl)-1H-imidazol-2-yl)benzyl)-2-(2-((tetrahydrofuran-2-yl)methoxy)pyridin-3-yl)-7,9-dihydro-8H-purin-8-one]: the IC50 was less than 0.05 µM. For `CC(C)c1ccccc1-c1ncc2c(n1)n(Cc1cccc(OCC3CCCN(C)C3)c1)c(=O)n2C` (stereo not drawn) [Compound I-241, 2-(2-isopropylphenyl)-7-methyl-9-(3-((1-methylpiperidin-3-yl)methoxy)benzyl)-7,9-dihydro-8H-purin-8-one] the value was 0.2 to 2 µM. Compound `Cn1cc(C(F)(F)F)nc1-c1ccc(Cn2c(=O)n(C)c3cnc(-c4cccnc4C4CC4)nc32)cc1` [Compound I-71, 2-(2-cyclopropylpyridin-3-yl)-7-methyl-9-(4-(1-methyl-4-(trifluoromethyl)-1H-imidazol-2-yl)benzyl)-7,9-dihydro-8H-purin-8-one] gave an IC50 of less than 0.05 µM. The figure for `CC(C)c1ccccc1-c1ncc2c(n1)n(Cc1ccc(-c3ccc(OCCN(C)C)cc3)cc1)c(=O)n2C` [Compound I-261, 9-((4′-(2-(dimethylamino)ethoxy)-[1,1′-biphenyl]-4-yl)methyl)-2-(2-isopropylphenyl)-7-methyl-7,9-dihydro-8H-purin-8-one] is 0.05 to 0.2 µM; for `COCCn1cc(C(F)(F)F)nc1-c1ccc(Cn2c(=O)[nH]c3cnc(-c4cccnc4C(C)C)nc32)cc1` [Compound I-43, 2-(2-isopropylpyridin-3-yl)-9-(4-(1-(2-methoxyethyl)-4-(trifluoromethyl)-1H-imidazol-2-yl)benzyl)-7,9-dihydro-8H-purin-8-one] it is 0.05 to 0.2 µM; for `CC(C)NC(=O)N1CCC(F)(Cn2c(=O)[nH]c3cnc(-c4ccccc4C(C)C)nc32)CC1` [Compound I-487, 4-fluoro-N-isopropyl-4-((2-(2-isopropylphenyl)-8-oxo-7,8-dihydro-9H-purin-9-yl)methyl)piperidine-1-carboxamide] it is more than 2 µM.

`COc1cc(C(F)(F)F)nn1-c1ccc(Cn2c(=O)[nH]c3cnc(-c4cccnc4C(C)C)nc32)cc1` [Compound I-60, 2-(2-isopropylpyridin-3-yl)-9-(4-(5-methoxy-3-(trifluoromethyl)-1H-pyrazol-1-yl)benzyl)-7,9-dihydro-8H-purin-8-one] returned an IC50 of less than 0.05 µM.

As for `CC(C)c1ccccc1-c1ncc2[nH]c(=O)n([C@H](C)c3ccc(-n4nccn4)cc3)c2n1` [Compound I-142, (R)-9-(1-(4-(2H-1,2,3-triazol-2-yl)phenyl)ethyl)-2-(2-isopropylphenyl)-7,9-dihydro-8H-purin-8-one], the IC50 was 0.2 to 2 µM. Compound `CC(=O)N1CC(n2cc(C(F)(F)F)nc2-c2ccc(Cn3c(=O)[nH]c4cnc(-c5cccnc5C(C)C)nc43)cc2)C1` [Compound I-477, 9-(4-(1-(1-acetylazetidin-3-yl)-4-(trifluoromethyl)-1H-imidazol-2-yl)benzyl)-2-(2-isopropylpyridin-3-yl)-7,9-dihydro-8H-purin-8-one] yielded an IC50 of less than 0.05 µM. For `CC(C)c1ccccc1-c1ncc2[nH]c(=O)n(CC3(F)CCN(S(=O)(=O)C4CC4)CC3)c2n1` [Compound I-460, 9-((1-(cyclopropylsulfonyl)-4-fluoropiperidin-4-yl)methyl)-2-(2-isopropylphenyl)-7,9-dihydro-8H-purin-8-one] the value was 0.2 to 2 µM; for `Cc1nnn(-c2ccc(Cn3c(=O)[nH]c4cnc(-c5ccccc5C(C)C)nc43)cc2)n1` [Compound I-168, 2-(2-isopropylphenyl)-9-(4-(5-methyl-2H-tetrazol-2-yl)benzyl)-7,9-dihydro-8H-purin-8-one], 0.05 to 0.2 µM. As to `CC(C)Nc1ncccc1-c1ncc2[nH]c(=O)n(Cc3ccc(-c4nc(C(F)(F)F)cn4C)cc3)c2n1` [Compound I-313, 2-(2-(isopropylamino)pyridin-3-yl)-9-(4-(1-methyl-4-(trifluoromethyl)-1H-imidazol-2-yl)benzyl)-7,9-dihydro-8H-purin-8-one], the IC50 is less than 0.05 µM.

Take `Cc1cc(Cl)nn1-c1ccc(Cn2c(=O)[nH]c3cnc(-c4cccnc4C(C)C)nc32)cc1` [Compound I-52, 9-(4-(3-chloro-5-methyl-1H-pyrazol-1-yl)benzyl)-2-(2-isopropylpyridin-3-yl)-7,9-dihydro-8H-purin-8-one]: the IC50 was less than 0.05 µM.

Compound `CCOCCOc1ncccc1-c1ncc2[nH]c(=O)n(Cc3ccc(-c4nc(C(F)(F)F)cn4C)cc3)c2n1` [Compound I-415, 2-(2-(2-ethoxyethoxy)pyridin-3-yl)-9-(4-(1-methyl-4-(trifluoromethyl)-1H-imidazol-2-yl)benzyl)-7,9-dihydro-8H-purin-8-one] showed a half-inhibitory concentration (IC50) of less than 0.05 µM. For `CC(C)c1ccccc1-c1ncc2c(n1)n(Cc1ccc(-c3cc(N4CCOCC4)ncn3)cc1)c(=O)n2C` [Compound I-263, 2-(2-isopropylphenyl)-7-methyl-9-(4-(6-morpholinopyrimidin-4-yl)benzyl)-7,9-dihydro-8H-purin-8-one] the value was 0.2 to 2 µM. For the compound `CC(C)c1ncccc1-c1ncc2[nH]c(=O)n(Cc3ccc(-c4ccn(C)n4)cc3)c2n1` [Compound I-46, 2-(2-isopropylpyridin-3-yl)-9-(4-(1-methyl-1H-pyrazol-3-yl)benzyl)-7,9-dihydro-8H-purin-8-one], the IC50 was 0.2 to 2 µM.

With `COc1ccc(-c2ncc3[nH]c(=O)n(Cc4ccc(-c5nc(C(F)(F)F)cn5C)cc4)c3n2)c(F)n1` [Compound I-75, 2-(2-fluoro-6-methoxypyridin-3-yl)-9-(4-(1-methyl-4-(trifluoromethyl)-1H-imidazol-2-yl)benzyl)-7,9-dihydro-8H-purin-8-one], the IC50 fell in the range of 0.05 to 0.2 µM. With `CCOCCOc1ccc(Cn2c(=O)n(C)c3cnc(-c4ccccc4C(C)C)nc32)cc1` [Compound I-236, 9-(4-(2-ethoxyethoxy)benzyl)-2-(2-isopropylphenyl)-7-methyl-7,9-dihydro-8H-purin-8-one], the IC50 is less than 0.05 µM. Compound `CC(C)c1ccccc1-c1ncc2[nH]c(=O)n(Cc3ccc(-n4ccc(C5CCCNC5)n4)cc3)c2n1` (stereo not drawn) [Compound I-223, 2-(2-isopropylphenyl)-9-(4-(3-(piperidin-3-yl)-1H-pyrazol-1-yl)benzyl)-7,9-dihydro-8H-purin-8-one] returned an IC50 of 0.05 to 0.2 µM. For `Cc1cc(Cl)n(-c2ccc(Cn3c(=O)[nH]c4cnc(-c5cccnc5C(C)C)nc43)cc2)n1` [Compound I-53, 9-(4-(5-chloro-3-methyl-1H-pyrazol-1-yl)benzyl)-2-(2-isopropylpyridin-3-yl)-7,9-dihydro-8H-purin-8-one] the value was less than 0.05 µM; for `Cc1nnc(-c2ccc(Cn3c(=O)[nH]c4cnc(-c5cccc(F)c5C(C)C)nc43)cc2)o1` [Compound I-189, 2-(3-fluoro-2-isopropylphenyl)-9-(4-(5-methyl-1,3,4-oxadiazol-2-yl)benzyl)-7,9-dihydro-8H-purin-8-one], less than 0.05 µM.
